Experimental findings from patent publication US7273848B2, “Apolipoprotein A-I agonists and their use to treat dyslipidemic disorders” (priority 1997, dated 2007) are described below.

Non-standard residues stand in square brackets, D forms with d. Residues, ends and D or L forms follow the SMILES beside them. Aib = CC(C)(N)C(=O)O

This experiment has as its target T1, LCAT (purified from human plasma) (Homo sapiens, UniProt P04180).
T1 construct: from tissue; host or cells: human plasma
T1 sequence (P04180 25-440): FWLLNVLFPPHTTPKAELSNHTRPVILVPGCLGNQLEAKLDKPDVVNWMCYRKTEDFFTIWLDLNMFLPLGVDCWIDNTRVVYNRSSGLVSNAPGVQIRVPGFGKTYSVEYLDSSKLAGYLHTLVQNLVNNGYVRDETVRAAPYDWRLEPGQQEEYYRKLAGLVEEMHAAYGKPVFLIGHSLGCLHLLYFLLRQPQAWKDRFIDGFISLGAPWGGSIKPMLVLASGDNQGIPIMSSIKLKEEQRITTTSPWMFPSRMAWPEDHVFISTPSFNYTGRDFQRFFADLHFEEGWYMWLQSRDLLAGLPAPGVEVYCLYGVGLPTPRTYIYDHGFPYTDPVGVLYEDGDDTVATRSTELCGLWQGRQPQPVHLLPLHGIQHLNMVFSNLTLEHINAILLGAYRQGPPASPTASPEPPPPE
Briefly: LCAT activation assay. Format: biochemical. Conditions: LCAT activation as compared with native human ApoA-I (= 100%), equivalent masses. The method, then: The peptides synthesized as described in Section 6, supra, were analyzed in vitro for their ability to activate LCAT. In the LCAT assay, substrate vesicles (small unilamellar vesicles or “SUVs”) composed of egg phophatidylcholine (EPC) or 1-Palmitoyl-2-oleyl-phosphatidyl-choline (POPC) and radiolabelled cholesterol are preincubated with equivalent masses either of peptide or ApoA-I (isolated from human plasma). The reaction is initiated by addition of LCAT (purified from human plasma). Native ApoA-I, which was used as positive control, represents 100% activation activity. “Specific activity” (i.e., units of activity (LCAT activation)/unit of mass) of the peptides can be calculated as the concentration of peptide that achieves maximum LCAT activation. For example, a series of concentrations of the peptide (e.g., a limiting dilution) can be assayed to determine the “specific activity” for the peptide—the concentration which achieves maximal LCAT activation (i.e., percentage conversion of cholesterol to cholesterol ester) at a specific timepoint in the assay (e.g., 1 hr.). When plotting percentage conversion of cholesterol at, e.g., 1 hr., against the concentration of peptide used, the “specific activity” can be identified as the concentration of peptide that achieves a plateau on the plotted curve.
The vesicles used in the LCAT assay are SUVs composed of egg phosphatidylcholine (EPC) or 1-palmitoyl-2-oleyl-phosphatidylcholine (POPC) and cholesterol with a molar ratio of 20:1. To prepare a vesicle stock solution sufficient for 40 assays, 7.7 mg EPC (or 7.6 mg POPC; 10 μmol), 78 μg (0.2 μmol) 4-^14C-cholesterol, 116 μg cholesterol (0.3 μmol) are dissolved in 5 ml xylene and lyophilized. Thereafter 4 ml of assay buffer is added to the dry powder and sonicated under nitrogen atmosphere at 4° C. Sonication conditions: Branson 250 sonicator, 10 mm tip, 6×5 minutes; Assay buffer: 10 mM Tris, 0.14 M NaCl, 1 mM EDTA, pH 7.4). The sonicated mixture is centrifuged 6 times for 5 minutes each time at 14,000 rpm (16,000×g) to remove titanium particles. The resulting clear solution is used for the enzyme assay.
For the LCAT purification, dextran sulfate/Mg^2+ treatment of human plasma is used to obtain lipoprotein deficient serum (LPDS), which is sequentially chromatographed on Phenylsepharose, Affigelblue, ConcanavalinA sepharose and anti-ApoA-I affinity chromatography, as summarized for a representative purification in TABLE IX, below: […]
For `CC(C)C[C@H](NC(=O)[C@H](CCCCN)NC(=O)[C@H](CCC(N)=O)NC(=O)[C@H](CCCCN)NC(=O)[C@H](CC(C)C)NC(=O)[C@H](C)NC(=O)[C@H](CCC(=O)O)NC(=O)[C@H](CC(C)C)NC(=O)C(C)(C)NC(=O)[C@H](CCC(=O)O)NC(=O)[C@H](CC(N)=O)NC(=O)[C@H](CC(C)C)NC(=O)[C@H](CCCCN)NC(=O)[C@H](CCC(=O)O)NC(=O)[C@H](CCCNC(=N)N)NC(=O)[C@H](Cc1ccccc1)NC(=O)[C@H](CCC(=O)O)NC(=O)[C@H](CC(=O)O)NC(=O)[C@H](CC(C)C)NC(=O)[C@@H](NC(=O)[C@@H]1CCCN1)C(C)C)C(=O)O` [compound 58, PVLDEFREKLNEXLEALKQKL~] (H-PVLDEFREKLNE[Aib]LEALKQKL-OH), the “ACTIVITY (%) LCAT” value is recorded as 18%.

As for `CC(C)C[C@H](NC(=O)[C@H](C)NC(=O)[C@H](CCC(=O)O)NC(=O)[C@H](CC(C)C)NC(=O)C(C)(C)NC(=O)[C@H](CCC(=O)O)NC(=O)[C@H](CC(N)=O)NC(=O)[C@H](CC(C)C)NC(=O)[C@H](CCCCN)NC(=O)[C@H](Cc1c[nH]c2ccccc12)NC(=O)[C@H](CCCNC(=N)N)NC(=O)[C@H](Cc1ccccc1)NC(=O)[C@H](CCC(=O)O)NC(=O)[C@H](CC(=O)O)NC(=O)[C@H](CC(C)C)NC(=O)[C@@H](NC(=O)[C@@H]1CCCN1)C(C)C)C(=O)N[C@@H](CCCCN)C(=O)N[C@@H](CCC(N)=O)C(=O)N[C@@H](CCCCN)C(=O)N[C@@H](CC(C)C)C(=O)N[C@@H](CCCCN)C(=O)O` [compound 61, PVLDEFRWKLNEXLEALKQKLK] (H-PVLDEFRWKLNE[Aib]LEALKQKLK-OH), the “ACTIVITY (%) LCAT” value was found to be 16%.

For the molecule `CC(C)C[C@H](NC(=O)[C@H](C)NC(=O)[C@H](CCC(=O)O)NC(=O)[C@H](CC(C)C)NC(=O)C(C)(C)NC(=O)[C@H](CCC(=O)O)NC(=O)[C@H](CC(N)=O)NC(=O)[C@H](CC(C)C)NC(=O)[C@H](CCCCN)NC(=O)[C@H](CCC(=O)O)NC(=O)[C@H](CCCNC(=N)N)NC(=O)[C@H](Cc1ccccc1)NC(=O)[C@H](Cc1ccccc1)NC(=O)[C@H](CC(=O)O)NC(=O)[C@H](CC(C)C)NC(=O)[C@@H](NC(=O)[C@@H]1CCCN1)C(C)C)C(=O)N[C@@H](CCCCN)C(=O)N[C@@H](CCC(N)=O)C(=O)N[C@@H](CCCCN)C(=O)N[C@@H](CC(C)C)C(=O)N[C@@H](CCCCN)C(=O)O` [compound 63, PVLDFFREKLNEXLEALKQKLK] (H-PVLDFFREKLNE[Aib]LEALKQKLK-OH), the “ACTIVITY (%) LCAT” value stood at 16%.

As to `CC(C)C[C@H](NC(=O)[C@H](C)NC(=O)[C@H](CCC(=O)O)NC(=O)[C@H](CC(C)C)NC(=O)C(C)(C)NC(=O)[C@H](CCC(=O)O)NC(=O)[C@H](CC(N)=O)NC(=O)[C@H](CC(C)C)NC(=O)[C@H](CCCCN)NC(=O)[C@H](CCC(=O)O)NC(=O)[C@H](CCCNC(=N)N)NC(=O)[C@H](Cc1ccccc1)NC(=O)[C@H](CCC(=O)O)NC(=O)[C@H](CC(=O)O)NC(=O)[C@H](CC(C)C)NC(=O)[C@H](Cc1c[nH]c2ccccc12)NC(=O)[C@@H]1CCCN1)C(=O)N[C@@H](CCCCN)C(=O)N[C@@H](CCC(N)=O)C(=O)N[C@@H](CCCCN)C(=O)N[C@@H](CC(C)C)C(=O)N[C@@H](CCCCN)C(=O)O` [compound 64, PWLDEFREKLNEXLEALKQKLK] (H-PWLDEFREKLNE[Aib]LEALKQKLK-OH), the “ACTIVITY (%) LCAT” value is 15%.

`CC(C)C[C@H](NC(=O)[C@H](C)NC(=O)[C@H](CCC(=O)O)NC(=O)[C@H](CC(C)C)NC(=O)C(C)(C)NC(=O)[C@H](CCC(=O)O)NC(=O)[C@H](CC(N)=O)NC(=O)[C@H](CC(C)C)NC(=O)[C@H](CCCCN)NC(=O)[C@H](CCC(=O)O)NC(=O)[C@H](CCCNC(=N)N)NC(=O)[C@H](Cc1ccccc1)NC(=O)[C@H](CCC(=O)O)NC(=O)[C@H](CC(=O)O)NC(=O)[C@H](CC(C)C)NC(=O)[C@@H](N)C(C)C)C(=O)N[C@@H](CCCCN)C(=O)N[C@@H](CCC(N)=O)C(=O)N[C@@H](CCCCN)C(=O)N[C@@H](CC(C)C)C(=O)N[C@@H](CCCCN)C(=O)O` [compound 65, ~VLDEFREKLNEXLEALKQKLK] (H-VLDEFREKLNE[Aib]LEALKQKLK-OH): the “ACTIVITY (%) LCAT” value is 15%.

As to `CC(C)C[C@H](NC(=O)[C@H](C)NC(=O)[C@H](CCC(=O)O)NC(=O)[C@H](CC(C)C)NC(=O)C(C)(C)NC(=O)[C@H](CCC(=O)O)NC(=O)[C@H](CCCCN)NC(=O)[C@H](CC(C)C)NC(=O)[C@H](CC(C)C)NC(=O)[C@H](CCC(=O)O)NC(=O)[C@H](CCCNC(=N)N)NC(=O)[C@H](Cc1ccccc1)NC(=O)[C@H](CCC(=O)O)NC(=O)[C@H](CC(=O)O)NC(=O)[C@H](CC(C)C)NC(=O)[C@@H](NC(=O)[C@@H]1CCCN1)C(C)C)C(=O)N[C@@H](CCCCN)C(=O)N[C@@H](CCC(N)=O)C(=O)N[C@@H](CCCCN)C(=O)N[C@@H](CC(C)C)C(=O)N[C@@H](CCCCN)C(=O)O` [compound 68, PVLDEFRELLKEXLEALKQKLK] (H-PVLDEFRELLKE[Aib]LEALKQKLK-OH), the “ACTIVITY (%) LCAT” value was 14%.

`CC(C)C[C@H](NC(=O)[C@H](C)NC(=O)[C@H](CCC(=O)O)NC(=O)[C@H](CC(C)C)NC(=O)C(C)(C)NC(=O)[C@H](CCC(=O)O)NC(=O)[C@H](CC(N)=O)NC(=O)[C@H](CC(C)C)NC(=O)[C@H](CCCCN)NC(=O)[C@H](CCCCN)NC(=O)[C@H](CCCNC(=N)N)NC(=O)[C@H](Cc1ccccc1)NC(=O)[C@H](CCC(=O)O)NC(=O)[C@H](CC(=O)O)NC(=O)[C@H](CC(C)C)NC(=O)[C@@H](NC(=O)[C@@H]1CCCN1)C(C)C)C(=O)N[C@@H](CCCCN)C(=O)N[C@@H](CCC(N)=O)C(=O)N[C@@H](CCCCN)C(=O)N[C@@H](CC(C)C)C(=O)N[C@@H](CCCCN)C(=O)O` [compound 69, PVLDEFRKKLNEXLEALKQKLK] (H-PVLDEFRKKLNE[Aib]LEALKQKLK-OH): the “ACTIVITY (%) LCAT” value amounted to 13%.

`CC(C)C[C@H](NC(=O)[C@H](C)NC(=O)[C@H](CCC(=O)O)NC(=O)C(C)(C)NC(=O)[C@H](CC(C)C)NC(=O)[C@H](CCC(=O)O)NC(=O)[C@H](CC(N)=O)NC(=O)[C@H](CC(C)C)NC(=O)[C@H](CCCCN)NC(=O)[C@H](CCC(=O)O)NC(=O)[C@H](CCCNC(=N)N)NC(=O)[C@H](Cc1ccccc1)NC(=O)[C@H](CCC(=O)O)NC(=O)[C@H](CC(=O)O)NC(=O)[C@H](CC(C)C)NC(=O)[C@@H](NC(=O)[C@@H]1CCCN1)C(C)C)C(=O)N[C@@H](CCCCN)C(=O)N[C@@H](CCC(N)=O)C(=O)N[C@@H](CCCCN)C(=O)N[C@@H](CC(C)C)C(=O)N[C@@H](CCCCN)C(=O)O` [compound 71, PVLDEFREKLNELXEALKQKLK] (H-PVLDEFREKLNEL[Aib]EALKQKLK-OH): the “ACTIVITY (%) LCAT” value is recorded as 11%.

Regarding `CC(C)C[C@H](NC(=O)[C@H](C)NC(=O)[C@H](Cc1c[nH]c2ccccc12)NC(=O)[C@H](CC(C)C)NC(=O)C(C)(C)NC(=O)[C@H](CCC(=O)O)NC(=O)[C@H](CC(N)=O)NC(=O)[C@H](CC(C)C)NC(=O)[C@H](CC(C)C)NC(=O)[C@H](CCC(=O)O)NC(=O)[C@H](CCCNC(=N)N)NC(=O)[C@H](Cc1ccccc1)NC(=O)[C@H](CC(C)C)NC(=O)[C@H](CC(=O)O)NC(=O)[C@H](CC(C)C)NC(=O)[C@@H](NC(=O)[C@@H]1CCCN1)C(C)C)C(=O)N[C@@H](CCCCN)C(=O)N[C@@H](CCC(N)=O)C(=O)N[C@@H](CCCCN)C(=O)N[C@@H](CC(C)C)C(=O)N[C@@H](CCCCN)C(=O)O` [compound 72, PVLDLFRELLNEXLWALKQKLK] (H-PVLDLFRELLNE[Aib]LWALKQKLK-OH), the “ACTIVITY (%) LCAT” value stood at 11%.

Regarding `CC(C)C[C@H](NC(=O)[C@H](C)NC(=O)[C@H](CCC(=O)O)NC(=O)[C@H](CC(C)C)NC(=O)C(C)(C)NC(=O)[C@H](CCC(=O)O)NC(=O)[C@H](CC(N)=O)NC(=O)[C@H](CC(C)C)NC(=O)[C@H](CCCCN)NC(=O)[C@H](CCC(=O)O)NC(=O)[C@H](Cc1c[nH]c2ccccc12)NC(=O)[C@H](Cc1ccccc1)NC(=O)[C@H](CCC(=O)O)NC(=O)[C@H](CC(=O)O)NC(=O)[C@H](CC(C)C)NC(=O)[C@@H](NC(=O)[C@@H]1CCCN1)C(C)C)C(=O)N[C@@H](CCCCN)C(=O)N[C@@H](CCC(N)=O)C(=O)N[C@@H](CCCCN)C(=O)N[C@@H](CC(C)C)C(=O)N[C@@H](CCCCN)C(=O)O` [compound 73, PVLDEFWEKLNEXLEALKQKLK] (H-PVLDEFWEKLNE[Aib]LEALKQKLK-OH), the “ACTIVITY (%) LCAT” value was found to be 10%.
